Results on three compounds are retold here after article PMC3966265, “Phosphorylation of Arabidopsis transketolase at Ser^428 provides a potential paradigm for the metabolic control of chloroplast carbon metabolism” (Biochemical Journal, 2014).

Format in all cases: biochemical
The target of one assay is T1, cpCKII (Arabidopsis thaliana, UniProt O64816).
T1 construct: gene CKA4; mature form lacking N-terminal 85 residues; N-terminal GST fusion (pGEX4-T1) kept; E. coli
T1 sequence (O64816 86-432): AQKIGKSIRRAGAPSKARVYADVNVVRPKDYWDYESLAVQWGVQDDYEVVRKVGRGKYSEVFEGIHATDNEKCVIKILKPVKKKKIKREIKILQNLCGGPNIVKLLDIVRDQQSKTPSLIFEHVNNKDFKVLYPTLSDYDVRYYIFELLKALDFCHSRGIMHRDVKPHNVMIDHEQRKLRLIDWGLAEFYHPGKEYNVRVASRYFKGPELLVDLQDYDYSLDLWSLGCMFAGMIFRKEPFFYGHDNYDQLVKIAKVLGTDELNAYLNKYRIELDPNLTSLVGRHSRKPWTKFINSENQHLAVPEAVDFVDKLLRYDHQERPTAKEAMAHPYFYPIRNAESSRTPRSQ
Briefly: […] phosphorylation of recombinant AtTKL1, SDS/PAGE autoradiogram. The following applies: labelled compound; 10 mM MgCl2; pH 7.6; 22 °C; with calcium or EGTA.

For assay [1], the target named is T2, AtTKL1 (Arabidopsis thaliana, UniProt Q8RWV0, S428D).
T2 construct: gene TKL-1; mature form lacking N-terminal 67 residues (chloroplast-targeting peptide); N-terminal intein tag cleaved; E. coli ER2566; 73 kDa; homodimer
T2 sequence (Q8RWV0 68-741 S428D): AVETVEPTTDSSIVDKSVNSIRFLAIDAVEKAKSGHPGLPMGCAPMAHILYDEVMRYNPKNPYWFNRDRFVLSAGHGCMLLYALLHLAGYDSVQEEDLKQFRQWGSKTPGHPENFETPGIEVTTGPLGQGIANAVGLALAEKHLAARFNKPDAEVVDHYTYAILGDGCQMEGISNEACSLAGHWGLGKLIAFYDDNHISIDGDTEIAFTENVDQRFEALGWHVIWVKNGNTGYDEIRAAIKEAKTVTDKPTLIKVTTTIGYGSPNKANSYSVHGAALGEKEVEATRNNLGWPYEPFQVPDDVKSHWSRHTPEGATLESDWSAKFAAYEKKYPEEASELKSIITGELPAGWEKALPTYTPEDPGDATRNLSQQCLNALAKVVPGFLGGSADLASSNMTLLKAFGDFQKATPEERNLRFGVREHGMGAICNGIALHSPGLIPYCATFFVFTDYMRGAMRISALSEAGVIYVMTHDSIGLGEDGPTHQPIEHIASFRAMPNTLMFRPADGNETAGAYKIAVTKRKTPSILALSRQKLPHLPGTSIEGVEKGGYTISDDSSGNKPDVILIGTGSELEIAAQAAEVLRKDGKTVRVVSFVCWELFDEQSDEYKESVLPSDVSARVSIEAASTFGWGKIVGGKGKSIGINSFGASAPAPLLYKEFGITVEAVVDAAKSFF
Briefly: coupled NAD reduction assay with E. coli E4PDH, A340. The settings on record: phosphomimetic mutant; 2 mM G3P; 0.1 mM TPP; 15 mM MgCl2; 5 mM CaCl2; pH 7.2 and 8.0; 30 °C.

Assay [2] addresses T3, AtTKL1 (Arabidopsis thaliana, UniProt Q8RWV0).
T3 construct: gene TKL-1; mature form lacking N-terminal 67 residues (chloroplast-targeting peptide); N-terminal intein tag cleaved; E. coli ER2566; 73 kDa; homodimer
T3 sequence (Q8RWV0 68-741): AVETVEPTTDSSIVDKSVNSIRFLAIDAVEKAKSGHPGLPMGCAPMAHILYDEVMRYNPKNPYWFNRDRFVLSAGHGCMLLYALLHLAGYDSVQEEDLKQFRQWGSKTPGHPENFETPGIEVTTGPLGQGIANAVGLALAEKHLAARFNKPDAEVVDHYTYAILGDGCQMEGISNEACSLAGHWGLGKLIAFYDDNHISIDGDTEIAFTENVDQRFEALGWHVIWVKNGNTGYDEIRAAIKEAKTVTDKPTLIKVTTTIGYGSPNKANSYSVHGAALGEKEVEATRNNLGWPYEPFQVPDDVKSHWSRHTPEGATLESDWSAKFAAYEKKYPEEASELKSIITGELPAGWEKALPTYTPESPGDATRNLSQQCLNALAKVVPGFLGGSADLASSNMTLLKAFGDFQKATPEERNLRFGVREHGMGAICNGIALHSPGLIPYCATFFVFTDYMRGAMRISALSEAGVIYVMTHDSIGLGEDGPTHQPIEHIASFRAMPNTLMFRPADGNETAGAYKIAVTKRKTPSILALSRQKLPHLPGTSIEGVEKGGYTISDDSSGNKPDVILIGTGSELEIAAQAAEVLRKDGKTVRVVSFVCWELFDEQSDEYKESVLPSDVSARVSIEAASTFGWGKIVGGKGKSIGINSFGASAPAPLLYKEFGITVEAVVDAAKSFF
The description is as above. The following applies: 2 mM G3P; 0.1 mM TPP; 15 mM MgCl2; 5 mM CaCl2; pH 7.2 and 8.0; 30 °C.

Turning to `Nc1ncnc2c1ncn2[C@@H]1O[C@H](COP(=O)(O)OP(=O)(O)OP(=O)(O)O)[C@@H](O)[C@H]1O` [ATP], on cpCKII, the “32P phosphorylation of recombinant AtTKL1, SDS/PAGE autoradiogram” value is reported as “cpCKII was able to phosphorylate recombinant AtTKL1 (Figure 2F, arrowheads)”.
As to `O=P(O)(O)OC[C@H]1OC(O)(CO)[C@@H](O)[C@@H]1O` (stereo partly shown) [F6P], the KmF6P result on AtTKL1 [1] is “higher KmF6P and VmaxF6P values compared with the phosphomimetic mutant”; at AtTKL1 [2], “the wild-type enzyme had higher KmF6P and VmaxF6P values”.
Turning to `Nc1nc2c(ncn2[C@@H]2O[C@H](COP(=O)(O)OP(=O)(O)OP(=O)(O)O)[C@@H](O)[C@H]2O)c(=O)[nH]1` [GTP], the “32P phosphorylation of recombinant AtTKL1, SDS/PAGE autoradiogram” value on cpCKII is “recombinant cpCKII was able to utilize GTP”.
